Experimental data taken from US20230348369A1 (Cytokinetics, Inc., priority 2020, published 2023).

Molecular target: human NAMPT (Homo sapiens, UniProt P43490)
Test: Human recombinant enzyme assay (NMN fluorescence biochemical assay, activation of NAMPT)
Conditions: Table A, human recombinant NAMPT, NMN formation, 60 min; for EC50: read-out: EC50 Human
In short: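 NMN production is detected fluorometrically (Ex 355/Em 460 nm) 40 min after acetophenone, KOH and formic acid derivatization. Reactions ran 60 min at ambient temperature: 6 nM human NAMPT, nicotinamide 150 μM, PRPP 20 μM, ATP 2.5 mM, buffered at pH 7.2 with 50 mM HEPES plus DTT, CHAPS, NaCl and 100 mM MgCl2.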

Sequence of human NAMPT (P43490 whole entry): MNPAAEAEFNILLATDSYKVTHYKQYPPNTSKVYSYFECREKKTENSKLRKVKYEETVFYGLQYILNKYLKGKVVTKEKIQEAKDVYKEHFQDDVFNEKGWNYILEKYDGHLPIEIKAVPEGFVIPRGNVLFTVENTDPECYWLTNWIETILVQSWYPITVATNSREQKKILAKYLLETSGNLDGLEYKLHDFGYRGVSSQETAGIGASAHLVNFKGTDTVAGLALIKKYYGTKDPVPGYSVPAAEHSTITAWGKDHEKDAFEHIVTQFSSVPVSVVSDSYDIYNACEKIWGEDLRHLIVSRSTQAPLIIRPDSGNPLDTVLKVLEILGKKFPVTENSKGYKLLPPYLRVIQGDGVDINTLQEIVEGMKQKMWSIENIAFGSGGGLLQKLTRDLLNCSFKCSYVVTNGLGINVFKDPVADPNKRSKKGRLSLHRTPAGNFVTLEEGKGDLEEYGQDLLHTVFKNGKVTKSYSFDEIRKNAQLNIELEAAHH

## O=C(CCCCCNC(=O)NCc1ccc(Cl)cc1)NC1CCCCC1 [Compound 257, 6-(3-(4-chlorobenzyl)ureido)-N-cyclohexylhexanamide]
  AC1.4 Human: 2.7 µM
  EC50: 17.9 µM

## O=C(CCCCCNC(=O)NCc1ccc(Cl)cc1)NC1CCCC1 [Compound 258, 6-(3-(4-chlorobenzyl)ureido)-N-cyclopentylhexanamide]
  AC1.4 Human: 3.8 µM
  EC50: 23.1 µM

## O=C(NCCCCCC(=O)N1CCOCC1)NCc1ccc(Cl)cc1 [Compound 259, 1-(4-chlorobenzyl)-3-(6-morpholine-6-oxohexyl)urea]
  AC1.4 Human: 8.6 µM
  EC50: 59.4 µM

## CC(C)(C)CN1CCN(C(=O)CCCCCNC(=O)NCc2ccc(Cl)cc2)CC1 [Compound 260, 1-(4-chlorobenzyl)-3-(6-(4-neopentylpiperazin-1-yl)-6-oxohexyl)urea]
  AC1.4 Human: 2.0 µM
  EC50: 17.5 µM

## CC(C)(O)CN1CCN(C(=O)CCCCCNC(=O)NCc2ccc(Cl)cc2)CC1 [Compound 261, 1-(4-chlorobenzyl)-3-(6-(4-(2-hydroxy-2-methylpropyl)piperazin-1-yl)-6-oxohexyl)urea]
  AC1.4 Human: 2.8 µM
  EC50: 42.9 µM

## Cc1ccccc1NC(=O)CCCCCNC(=O)NCc1ccc(Cl)cc1 [Compound 262, 6-(3-(4-chlorobenzyl)ureido)-N-(o-tolyl)hexanamide]
  AC1.4 Human: 0.6 µM
  EC50: 4.9 µM

## O=C(CCCCCNC(=O)NCc1ccc(Cl)cc1)Nc1ccncc1 [Compound 263, 6-(3-(4-chlorobenzyl)ureido)-N-(pyridin-4-yl)hexanamide]
  AC1.4 Human: 1.4 µM
  EC50: 10.2 µM

## Cc1cccc(N(C)C(=O)CCCCCNC(=O)NCc2ccc(Cl)cc2)c1 [Compound 264, 6-(3-(4-chlorobenzyl)ureido)-N-methyl-N-(m-tolyl)hexanamide]
  AC1.4 Human: 1.0 µM
  EC50: 6.7 µM

## CN(C(=O)CCCCCNC(=O)NCc1ccc(Cl)cc1)c1ccncc1 [Compound 265, 6-(3-(4-chlorobenzyl)ureido)-N-methyl-N-(pyridin-4-yl)hexanamide]
  AC1.4 Human: 0.8 µM
  EC50: 1.6 µM

## Cc1ccccc1N(C)C(=O)CCCCCNC(=O)NCc1ccc(Cl)cc1 [Compound 266, 6-(3-(4-chlorobenzyl)ureido)-N-methyl-N-(o-tolyl)hexanamide]
  AC1.4 Human: 0.5 µM
  EC50: 1.8 µM

## Cc1cccc(CN(C)C(=O)CCCCCNC(=O)NCc2ccc(Cl)cc2)c1 [Compound 267, 6-(3-(4-chlorobenzyl)ureido)-N-methyl-N-(3-methylbenzyl)hexanamide]
  AC1.4 Human: 2.0 µM
  EC50: 7.9 µM

## CN(Cc1ccccc1)C(=O)CCCCCNC(=O)NCc1ccc(Cl)cc1 [Compound 269, N-benzyl-6-(3-(4-chlorobenzyl)ureido)-N-methylhexanamide]
  AC1.4 Human: 0.7 µM
  EC50: 5.1 µM

## CN(C(=O)CCCCCNC(=O)NCc1ccc(Cl)cc1)c1cccnc1 [Compound 270, 6-(3-(4-chlorobenzyl)ureido)-N-methyl-N-(pyridin-3-yl)hexanamide]
  AC1.4 Human: 1.1 µM
  EC50: 3.9 µM

## CN(C(=O)CCCCCNC(=O)NCc1ccc(Cl)cc1)c1ccccn1 [Compound 271, 6-(3-(4-chlorobenzyl)ureido)-N-methyl-N-(pyridin-2-yl)hexanamide]
  AC1.4 Human: 0.9 µM
  EC50: 3.7 µM

## O=C(CCCCCNC(=O)NCc1ccc(Cl)cc1)Nc1ccccc1F [Compound 272, 6-(3-(4-chlorobenzyl)ureido)-N-(2-fluorophenyl)hexanamide]
  AC1.4 Human: 0.9 µM
  EC50: 2.6 µM

## O=C(CCCCCNC(=O)NCc1ccc(Cl)cc1)Nc1ccccc1-c1ccccc1 [Compound 273, N-([1,1′-biphenyl]-2-yl)-6-(3-(4-chlorobenzyl)ureido)hexanamide]
  AC1.4 Human: 0.9 µM
  EC50: 0.3 µM

## CN(C(=O)CCCCCNC(=O)NCc1ccc(Cl)cc1)c1ccccc1F [Compound 274, 6-(3-(4-chlorobenzyl)ureido)-N-(2-fluorophenyl)-N-methylhexanamide]
  AC1.4 Human: 1.9 µM
  EC50: 0.3 µM

## Cc1ccccc1C(=O)NCCCCCNC(=O)NCc1ccc(Cl)cc1 [Compound 275, N-(5-(3-(4-chlorobenzyl)ureido)pentyl)-2-methylbenzamide]
  AC1.4 Human: 1.9 µM
  EC50: 11.4 µM

## Cc1cccc(C(=O)NCCCCCNC(=O)NCc2ccc(Cl)cc2)c1 [Compound 276, N-(5-(3-(4-chlorobenzyl)ureido)pentyl)-3-methylbenzamide]
  AC1.4 Human: 1.5 µM
  EC50: 9.5 µM

## O=C(NCCCCCNC(=O)c1cccnc1)NCc1ccc(Cl)cc1 [Compound 277, N-(5-(3-(4-chlorobenzyl)ureido)pentyl)nicotinamide]
  AC1.4 Human: 3.2 µM
  EC50: 6.9 µM

## Cc1ccc(NC(=O)CCCCCNC(=O)NCc2ccc(Cl)cc2)cn1 [Compound 278, 6-(3-(4-chlorobenzyl)ureido)-N-(6-methylpyridin-3-yl)hexanamide]
  AC1.4 Human: 1.8 µM
  EC50: 7.1 µM

## O=C(NCCCCCNC(=O)c1ccccn1)NCc1ccc(Cl)cc1 [Compound 279, N-(5-(3-(4-chlorobenzyl)ureido)pentyl)picolinamide]
  AC1.4 Human: 1.8 µM
  EC50: 11.8 µM

## O=C(NCCCCCNC(=O)c1ccccc1F)NCc1ccc(Cl)cc1 [Compound 280, N-(5-(3-(4-chlorobenzyl)ureido)pentyl)-2-fluorobenzamide]
  AC1.4 Human: 0.7 µM
  EC50: 2.6 µM

## Cc1ccc(C(=O)NCCCCCNC(=O)NCc2ccc(Cl)cc2)cn1 [Compound 281, N-(5-(3-(4-chlorobenzyl)ureido)pentyl)-6-methylnicotinamide]
  AC1.4 Human: 1.3 µM
  EC50: 3.9 µM

## COc1ccc(CNC(=O)NCCCCCC(=O)N(C)c2ccccc2F)cc1 [Compound 282, N-(2-fluorophenyl)-6-(3-(4-methoxybenzyl)ureido)-N-methylhexanamide]
  AC1.4 Human: 0.1 µM
  EC50: 3.9 µM

## O=C(Cc1cccnc1)NCCCCCNC(=O)NCc1ccc(Cl)cc1 [Compound 283, N-(5-(3-(4-chlorobenzyl)ureido)pentyl)-2-(pyridin-3-yl)acetamide]
  AC1.4 Human: 8.6 µM
  EC50: 32.8 µM

## O=C(CCCCCNC(=O)NCc1ccc(Cl)cc1)Nc1ccc(F)cc1 [Compound 284, 6-(3-(4-chlorobenzyl)ureido)-N-(4-fluorophenyl)hexanamide]
  AC1.4 Human: 2.8 µM
  EC50: 4.2 µM

## O=C(CCCCCNC(=O)NCc1ccc(Cl)cc1)Nc1cccc(F)c1 [Compound 285, 6-(3-(4-chlorobenzyl)ureido)-N-(3-fluorophenyl)hexanamide]
  AC1.4 Human: 3.5 µM
  EC50: 9.4 µM

## CN(C(=O)CCCCCNC(=O)NCc1ccncc1)c1ccccc1F [Compound 286, N-(2-fluorophenyl)-N-methyl-6-(3-(pyridin-4-ylmethyl)ureido)hexanamide]
  AC1.4 Human: 0.2 µM
  EC50: 2 µM

## O=C(NCCCCC1CCN(C(=O)c2cccnc2)CC1)NCc1ccc(Cl)cc1 [Compound 289, 1-(4-chlorobenzyl)-3-(4-(1-nicotinoylpiperidin-4-yl)butyl)urea]
  AC1.4 Human: 1.1 µM
  EC50: 7.7 µM

## O=C(NCCCCC1CCN(C(=O)c2ccncc2)CC1)NCc1ccc(Cl)cc1 [Compound 290, 1-(4-chlorobenzyl)-3-(4-(1-isonicotinoylpiperidin-4-yl)butyl)urea]
  AC1.4 Human: 1.3 µM
  EC50: 6.2 µM

## O=C(NCCCCC1CCN(C(=O)Cc2ccccc2)CC1)NCc1ccc(Cl)cc1 [Compound 291, 1-(4-chlorobenzyl)-3-(4-(1-(2-phenylacetyl)piperidin-4-yl)butyl)urea]
  AC1.4 Human: 1.9 µM
  EC50: 4.6 µM

## O=C(NCCCCC1CCN(C(=O)c2ccccn2)CC1)NCc1ccc(Cl)cc1 [Compound 292, 1-(4-chlorobenzyl)-3-(4-(1-picolinoylpiperidin-4-yl)butyl)urea]
  AC1.4 Human: 0.5 µM
  EC50: 2 µM

## O=C(NCCCCC1CCN(C(=O)Cc2cccnc2)CC1)NCc1ccc(Cl)cc1 [Compound 294, 1-(4-chlorobenzyl)-3-(4-(1-(2-(pyridin-3-yl)acetyl)piperidin-4-yl)butyl)urea]
  AC1.4 Human: 1.0 µM
  EC50: 10.1 µM

## O=C(NCCCCC1CCN(C(=O)Cc2ccncc2)CC1)NCc1ccc(Cl)cc1 [Compound 295, 1-(4-chlorobenzyl)-3-(4-(1-(2-(pyridin-4-yl)acetyl)piperidin-4-yl)butyl)urea]
  AC1.4 Human: 1.2 µM
  EC50: 8.4 µM

## Cc1cccc(CC(=O)N2CCC(CCCCNC(=O)NCc3ccc(Cl)cc3)CC2)n1 [Compound 299, 1-(4-chlorobenzyl)-3-(4-(1-(2-(6-methylpyridin-2-yl)acetyl)piperidin-4-yl)butyl)urea]
  AC1.4 Human: 1.0 µM
  EC50: 3.8 µM

## O=C(NCCCCC1CCN(C(=O)C2CCOCC2)CC1)NCc1ccc(Cl)cc1 [Compound 300, 1-(4-chlorobenzyl)-3-(4-(1-(tetrahydro-2H-pyran-4-carbonyl)piperidin-4-yl)butyl)urea]
  AC1.4 Human: 1.4 µM
  EC50: 6.5 µM

## O=C1CC(C(=O)N2CCC(CCCCNC(=O)NCc3ccc(Cl)cc3)CC2)CCN1 (centres unmarked) [Compound 301, 1-(4-chlorobenzyl)-3-(4-(1-(2-oxopiperidine-4-carbonyl)piperidin-4-yl)butyl)urea]
  AC1.4 Human: 2.7 µM
  EC50: 26.3 µM

## CN1CCC(C(=O)N2CCC(CCCCNC(=O)NCc3ccc(Cl)cc3)CC2)CC1=O (centres unmarked) [Compound 302, 1-(4-chlorobenzyl)-3-(4-(1-(1-methyl-2-oxopiperidine-4-carbonyl)piperidin-4-yl)butyl)urea]
  AC1.4 Human: 2.0 µM
  EC50: 7.9 µM

## O=C1CC(C(=O)N2CCC(CCCCNC(=O)NCc3ccc(Cl)cc3)CC2)CN1 (centres unmarked) [Compound 303, 1-(4-chlorobenzyl)-3-(4-(1-(5-oxopyrrolidine-3-carbonyl)piperidin-4-yl)butyl)urea]
  AC1.4 Human: 2.6 µM
  EC50: 15.6 µM
